The assay addresses Envelope glycoprotein gp160 (Human immunodeficiency virus 1, UniProt Q6QLK5). Description: cell-free HIV fusion peptide-binding blockers – biochemical, uHTS, fluorescence dequenching, […] (AID 1986).

Calls of active or inactive are those of the source. Rule as the data show it: actives have a measured IC50 and inactives only a lower limit.

Envelope glycoprotein gp160, sequence (Q6QLK5 whole entry, the tested form may be a part): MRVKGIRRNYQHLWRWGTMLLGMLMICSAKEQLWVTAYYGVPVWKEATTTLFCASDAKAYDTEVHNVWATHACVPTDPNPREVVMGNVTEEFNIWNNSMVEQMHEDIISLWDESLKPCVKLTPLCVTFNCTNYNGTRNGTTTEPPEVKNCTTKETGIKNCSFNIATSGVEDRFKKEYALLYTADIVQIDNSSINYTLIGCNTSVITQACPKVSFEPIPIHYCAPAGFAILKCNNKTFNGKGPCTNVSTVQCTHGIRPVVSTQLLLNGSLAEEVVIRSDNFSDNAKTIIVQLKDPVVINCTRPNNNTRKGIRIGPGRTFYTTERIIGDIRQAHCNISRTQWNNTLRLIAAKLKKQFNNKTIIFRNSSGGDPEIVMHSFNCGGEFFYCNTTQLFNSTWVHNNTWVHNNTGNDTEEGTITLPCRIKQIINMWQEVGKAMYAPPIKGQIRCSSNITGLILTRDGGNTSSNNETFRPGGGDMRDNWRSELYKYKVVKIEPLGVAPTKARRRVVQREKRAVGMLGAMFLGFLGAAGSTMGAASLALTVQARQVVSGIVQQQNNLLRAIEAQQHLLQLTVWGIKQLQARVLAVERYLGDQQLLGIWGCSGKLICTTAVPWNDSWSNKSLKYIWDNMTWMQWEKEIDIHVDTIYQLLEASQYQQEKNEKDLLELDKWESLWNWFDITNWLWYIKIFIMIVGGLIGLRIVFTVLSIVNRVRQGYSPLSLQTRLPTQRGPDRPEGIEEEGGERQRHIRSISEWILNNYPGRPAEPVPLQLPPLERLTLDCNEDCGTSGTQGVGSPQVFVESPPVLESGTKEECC

In general, IC50 refers to the concentration needed to halve the response being measured. As for `Cc1cccc(S(=O)(=O)Nc2nc3ccccc3nc2Nc2cccc(C(=O)O)c2)c1`, the IC50 is 29 µM (active).
For the compound `O=C(O)c1[nH]c2ccccc2c1C(c1cccc(O)c1)c1c(C(=O)O)[nH]c2ccccc12`, the IC50 is 25.8 µM (active).

(Values after ChEMBL document CHEMBL1201862, “PubChem BioAssay data set” (2004).)
